In patent publication US7820837B2, “Condensed ring compound” (Takeda Pharmaceutical Company Limited, priority 2003, dated 2010):

Target: T1, human GPR40 (Homo sapiens, UniProt O14842)
T1 construct: expressed in transfected cells
Test: Determination of EC50 on human GPR40 (intracellular calcium change by FLIPR in CHO cells stably expressing human GPR40)
Format: cell-based
Settings: CHO cell line stably expressing human GPR40; changes in intracellular calcium concentration measured by FLIPR (Fluo3-AM); read-out: EC50 (Receptor Function Modulating Action on GPR40)
Experimental: Determination of EC50 of the Compound of Example on Human GPR40
For determination of EC50, CHO cell line that stably expressed human GPR40 was used. Unless otherwise indicated, the CHO cell line was cultured using α-MEM medium (Invitrogen) containing 10% fetal calf serum (Invitrogen).
The cells cultured to nearly confluent were rinsed with PBS (Invitrogen) on the previous day of the assay, peeled off with 0.05% Trypsin•EDTA solution (Invitrogen) and recovered by centrifugation. The number of the obtained cells was counted, and the cells were diluted such that 3×10^5 cells were contained per 1 mL of the medium, dispensed to a Black welled 96-well plate (coster) by 100 μL per well and cultured overnight in a CO2 incubator. Various test samples were added to the CHO cells thus prepared, and the changes in the intracellular calcium concentration were measured using FLIPR (Molecular Device). The below-mentioned pre-treatment was applied to measure changes in the intracellular calcium concentration by FLIPR.
An assay buffer for adding a fluorescence dye Fluo3-AM (DOJIN) to the cells, or for washing the cells immediately before FLIPR assay was prepared. To a solution of 1M HEPES (pH 7.4, DOJIN, 20 mL) added to HBSS (Invitrogen, 1000 mL) (hereinafter HBSS/HEPES solution) was added a solution (10 mL) obtained by dissolving probenecid (Sigma, 710 mg) in 1N NaOH (5 mL), and adding and mixing an HBSS/HEPES solution (5 mL), and the resulting solution was used as an assay buffer. Fluo3-AM (50 μg) was dissolved in dimethyl sulfoxide (Wako, 21 μL), and an equivalent amount of 20% pluronic acid (Molecular Probes) was added and mixed. The solution was added to the assay buffer (10.6 mL) supplemented with fetal calf serum (105 μL) to give a fluorescence dye solution. On the previous day of assay, the medium of the CHO cells newly inoculated to the Black welled 96-well plate was removed, the fluorescence dye solution was immediately dispensed by 100 μL per well and the cells were cultured in a CO2 incubator for 1 hr to allow intake of the fluorescence dye by the cells. The cells after the culture were washed with the above-mentioned assay buffer and set on FLIPR. The test sample was diluted with DMSO in advance, dispensed to polypropylene 96-well plate (sample plate) by 2 μL, and cryopreserved at −20° C. To the thawed sample plate was added an assay buffer containing 0.015% CHAPS (DOJIN) by 198 μL, and simultaneously set on FLIPR together with the cell plate. After the aforementioned pre-treatment, changes in the intracellular calcium concentration upon addition of various test samples were measured by FLIPR.

T1 sequence (O14842 whole entry): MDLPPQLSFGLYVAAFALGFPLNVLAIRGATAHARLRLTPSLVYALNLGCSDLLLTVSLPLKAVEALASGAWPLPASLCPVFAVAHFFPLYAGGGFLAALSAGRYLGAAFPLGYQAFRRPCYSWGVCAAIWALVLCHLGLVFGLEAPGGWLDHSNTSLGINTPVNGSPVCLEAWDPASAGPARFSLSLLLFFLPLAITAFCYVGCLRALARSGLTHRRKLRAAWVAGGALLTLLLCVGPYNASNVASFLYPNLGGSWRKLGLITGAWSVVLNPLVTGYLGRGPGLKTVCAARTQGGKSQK

SMILES	EC50
Cc1cccc(C)c1-c1cccc(COc2ccc3c(c2)CCC3CC(=O)O)c1 (stereo not drawn) [Example 17, {5-[(2′,6′-dimethylbiphenyl-3-yl)methoxy]-2,3-dihydro-1H-inden-1-yl}acetic acid]	< 100 nM
CCCN(Cc1ccc(COc2ccc3c(c2)OCCC(C(=O)O)C3)cc1)c1nc(-c2ccccc2)cs1 (stereo not drawn) [Example 21, 8-[(4-{[(4-phenyl-1,3-thiazol-2-yl)(propyl)amino]methyl}benzyl)oxy]-2,3,4,5-tetrahydro-1-benzoxepine-4-carboxylic acid]	< 1000 nM
Cc1ccc2ccccc2c1-c1cccc(COc2ccc3c(c2)OCC3CC(=O)O)c1 (stereo not drawn) [Example 47, (6-{[3-(2-methyl-1-naphthyl)benzyl]oxy}-2,3-dihydro-1-benzofuran-3-yl)acetic acid]	< 100 nM
Cc1cccc(C)c1-c1cccc(COc2ccc3c(c2)CCCC3CC(=O)O)c1 (stereo not drawn) [Example 11, {6-[(2′,6′-dimethylbiphenyl-3-yl)methoxy]-1,2,3,4-tetrahydronaphthalen-1-yl}acetic acid]	< 100 nM
Cc1cccc(C)c1-c1cccc(COc2ccc3c(c2)OCC3CC(=O)O)c1 (stereo not drawn) [Example 33, {6-[(2′,6′-dimethylbiphenyl-3-yl)methoxy]-2,3-dihydro-1-benzofuran-3-yl}acetic acid]	< 100 nM
O=C(O)CC1CCc2cc(OCc3cccc(Oc4ccccc4)c3)ccc21 (stereo not drawn) [Example 15, {5-[(3-phenoxybenzyl)oxy]-2,3-dihydro-1H-inden-1-yl}acetic acid]	< 100 nM
CCCN(Cc1ccc(COc2ccc3c(c2)CCCC3CC(=O)O)cc1)c1nc(-c2ccccc2)cs1 (stereo not drawn) [Example 19, {6-[(4-{[(4-phenyl-1,3-thiazol-2-yl)(propyl)amino]methyl}benzyl)oxy]-1,2,3,4-tetrahydronaphthalen-1-yl}acetic acid]	< 1000 nM
CCCN(Cc1ccc(COc2ccc3c(c2)OCC3CC(=O)O)cc1)c1nc(-c2ccccc2)cs1 (stereo not drawn) [Example 35, {6-[(4-{[(4-phenyl-1,3-thiazol-2-yl)(propyl)amino]methyl}benzyl)oxy]-2,3-dihydro-1-benzofuran-3-yl}acetic acid]	< 100 nM
Cc1cccc(C)c1-c1cccc(COc2ccc3c(c2)OCCC(C(=O)O)C3)c1 (stereo not drawn) [Example 13, 8-[(2′,6′-dimethylbiphenyl-3-yl)methoxy]-2,3,4,5-tetrahydro-1-benzoxepine-4-carboxylic acid]	< 100 nM
O=C(O)CC1CCCc2cc(OCc3cccc(Oc4ccccc4)c3)ccc21 (stereo not drawn) [Example 6, (6-((3-phenoxybenzyl)oxy)-1,2,3,4-tetrahydro-1-naphthalenyl)acetic acid]	< 100 nM
Cc1cccc(C)c1-c1cc(COc2ccc3c(c2)OCC3CC(=O)O)ccc1OCc1ccccc1 (stereo not drawn) [Example 75, (6-{[6-(benzyloxy)-2′,6′-dimethylbiphenyl-3-yl]methoxy}-2,3-dihydro-1-benzofuran-3-yl)acetic acid]	< 100 nM
Cc1cccc(C)c1-c1cccc(COc2ccc3c(c2)CCCCC3CC(=O)O)c1 (stereo not drawn) [Example 25, {2-[(2′,6′-dimethylbiphenyl-3-yl)methoxy]-6,7,8,9-tetrahydro-5H-benzo[7]annulen-5-yl}acetic acid]	< 1000 nM
O=C(O)CC1COc2cc(OCc3ccc(Cn4c(-c5ccccc5)cc5ccccc54)cc3)ccc21 (stereo not drawn) [Example 66, [6-({4-[(2-phenyl-1H-indol-1-yl)methyl]benzyl}oxy)-2,3-dihydro-1-benzofuran-3-yl]acetic acid]	< 100 nM
O=C(O)CC1COc2cc(OCc3ccc(CN(CCc4ccccc4)c4nc(-c5ccccc5)cs4)cc3)ccc21 (stereo not drawn) [Example 73, calcium {6-[(4-{[(2-phenylethyl)(4-phenyl-1,3-thiazol-2-yl)amino]methyl}benzyl)oxy]-2,3-dihydro-1-benzofuran-3-yl}acetate]	< 1000 nM
CCCCOCCOc1ccc(-c2cccc(COc3ccc4c(c3)OCC4CC(=O)O)c2)c(C)c1 (stereo not drawn) [Example 58, (6-{[4′-(2-butoxyethoxy)-2′-methylbiphenyl-3-yl]methoxy}-2,3-dihydro-1-benzofuran-3-yl)acetic acid]	< 100 nM
C/C(=C\COc1ccc2c(c1)OCC2CC(=O)O)c1ccc2c(c1)CCCC2 (stereo not drawn) [Example 125, (6-{[(2E)-3-(5,6,7,8-tetrahydro-2-naphthalenyl)-2-buten-1-yl]oxy}-2,3-dihydro-1-benzofuran-3-yl)acetic acid]	< 1000 nM
Cc1cc(OCc2ccccc2)cc(C)c1-c1cccc(COc2ccc3c(c2)OCC3CC(=O)O)c1 (stereo not drawn) [Example 70, (6-{[4′-(benzyloxy)-2′,6′-dimethylbiphenyl-3-yl]methoxy}-2,3-dihydro-1-benzofuran-3-yl)acetic acid]	< 100 nM
O=C(O)CC1CCCc2nc(SCc3cccc(Oc4ccccc4)c3)sc21 (stereo not drawn) [Example 78, {2-[(3-phenoxybenzyl)thio]-4,5,6,7-tetrahydro-1,3-benzothiazol-7-yl}acetic acid]	< 100 nM
